Columns and labels:
[1] = system: T lymphocyte proliferation (C57BI/6 spleen cells with irradiated BALB/c spleen cells); test: Mixed lymphocyte reaction (MLR), one-way; type: cell-based, mice; conditions: Mus musculus, T-lymphocyte; read-out: MLR IC50
Procedure, shortened: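 One-way murine MLR: C57BI/6 responder splenocytes proliferate against irradiated BALB/c stimulators while exposed to serially diluted antagonists in supplemented RPMI1640 for 3 days. Proliferation read as [3H]-thymidine uptake over a final 6 h pulse (0.5 μCi/well), scintillation counted.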

[2] = biological target: T1, LFA-1 binding to immobilized ICAM-1 (Homo sapiens, UniProt P05107+P20701); test: LFA-1/ICAM-1 protein-protein assay (solid-phase ELISA); conditions: read-out: LFA-1/ICAM-1 Protein-Protein Assay IC50
T1 construct: made in house; host or cells: transfected 293 cells (LFA-1)
Procedure, shortened: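 Human 5dICAM-Ig (ICAM-1 extracellular domain–IgG Fc) coated on plates; membrane-bound LFA-1 from transfected 293 cells (280 ng/mL) added with compound in Mn2+-containing HEPES buffer pH 7.2, 2 h at 37° C. Bound LFA-1 detected via anti-β2 antibody and HRP/TMB at 450 nm; IC50s determined.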

T1 sequence (P20701 26-1170): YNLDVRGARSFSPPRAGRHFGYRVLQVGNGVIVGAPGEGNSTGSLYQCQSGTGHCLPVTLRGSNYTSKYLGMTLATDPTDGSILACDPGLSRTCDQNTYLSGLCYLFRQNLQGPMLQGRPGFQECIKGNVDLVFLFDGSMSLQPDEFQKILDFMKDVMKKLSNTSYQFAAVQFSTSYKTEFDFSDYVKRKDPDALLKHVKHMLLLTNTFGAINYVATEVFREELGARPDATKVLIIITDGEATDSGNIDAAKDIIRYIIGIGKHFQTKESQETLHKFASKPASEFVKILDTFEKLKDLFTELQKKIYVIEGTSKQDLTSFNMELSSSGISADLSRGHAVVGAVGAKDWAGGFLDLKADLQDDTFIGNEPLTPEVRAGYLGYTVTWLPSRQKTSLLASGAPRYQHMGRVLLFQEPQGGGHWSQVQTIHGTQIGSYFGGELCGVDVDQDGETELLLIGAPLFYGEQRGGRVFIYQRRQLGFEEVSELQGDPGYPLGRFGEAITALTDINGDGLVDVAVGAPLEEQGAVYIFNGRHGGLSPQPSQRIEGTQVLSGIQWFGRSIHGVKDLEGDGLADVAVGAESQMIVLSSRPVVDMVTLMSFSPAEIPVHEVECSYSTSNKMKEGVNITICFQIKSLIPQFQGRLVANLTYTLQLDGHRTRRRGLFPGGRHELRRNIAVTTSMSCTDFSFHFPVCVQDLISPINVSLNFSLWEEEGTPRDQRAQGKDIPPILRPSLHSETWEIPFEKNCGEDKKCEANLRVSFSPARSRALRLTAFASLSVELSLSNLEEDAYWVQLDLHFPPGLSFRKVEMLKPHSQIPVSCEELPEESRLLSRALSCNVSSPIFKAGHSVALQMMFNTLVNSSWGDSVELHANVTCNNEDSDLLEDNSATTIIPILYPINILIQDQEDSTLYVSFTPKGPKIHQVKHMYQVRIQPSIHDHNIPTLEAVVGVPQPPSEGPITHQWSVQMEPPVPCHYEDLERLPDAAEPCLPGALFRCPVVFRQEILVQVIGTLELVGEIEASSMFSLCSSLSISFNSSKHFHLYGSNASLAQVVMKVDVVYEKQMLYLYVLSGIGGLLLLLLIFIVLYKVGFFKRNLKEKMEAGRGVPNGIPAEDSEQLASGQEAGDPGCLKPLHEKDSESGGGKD
T1 sequence (P05107 23-769): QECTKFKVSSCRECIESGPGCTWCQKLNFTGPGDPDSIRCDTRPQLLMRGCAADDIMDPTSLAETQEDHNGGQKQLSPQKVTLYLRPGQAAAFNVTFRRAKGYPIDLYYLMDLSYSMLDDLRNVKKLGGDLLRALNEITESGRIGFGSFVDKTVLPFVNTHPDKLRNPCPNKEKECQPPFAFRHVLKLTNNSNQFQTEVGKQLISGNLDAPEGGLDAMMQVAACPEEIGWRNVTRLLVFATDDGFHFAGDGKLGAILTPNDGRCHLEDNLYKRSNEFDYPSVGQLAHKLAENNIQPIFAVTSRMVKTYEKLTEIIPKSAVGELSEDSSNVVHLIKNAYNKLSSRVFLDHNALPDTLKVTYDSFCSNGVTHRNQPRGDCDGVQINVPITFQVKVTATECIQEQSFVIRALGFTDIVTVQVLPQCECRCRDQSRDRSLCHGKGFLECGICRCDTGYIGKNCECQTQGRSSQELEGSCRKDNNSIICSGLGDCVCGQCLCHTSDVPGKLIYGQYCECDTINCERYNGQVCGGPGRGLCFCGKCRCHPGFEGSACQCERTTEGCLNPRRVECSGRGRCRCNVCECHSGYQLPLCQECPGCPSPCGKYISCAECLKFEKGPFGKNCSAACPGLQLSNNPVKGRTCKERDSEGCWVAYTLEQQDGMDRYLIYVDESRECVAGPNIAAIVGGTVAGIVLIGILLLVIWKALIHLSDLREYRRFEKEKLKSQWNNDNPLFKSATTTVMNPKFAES

| Compound | IC50 [2] [nM] | IC50 [1] [nM] |
| --- | --- | --- |
| O=C(NCc1cccc(O)c1)c1ccc(C(=O)N[C@@H](CNC(=O)c2cccc(Br)c2)C(=O)O)c(Cl)c1 [Example 121] | 1.6 | 530 |
| O=C(NCc1cccc(O)c1)c1ccc(C(=O)N[C@@H](CNC(=O)c2ccccc2Cl)C(=O)O)c(Cl)c1 [Example 122] | 2.8 | 925 |
| O=C(NCc1cccc(O)c1)c1ccc(C(=O)N[C@@H](CNC(=O)c2ccc(Cl)cc2)C(=O)O)c(Cl)c1 [Example 124] | 3.3 | 2500 |
| N#Cc1cccc(C(=O)NC[C@H](NC(=O)c2ccc(C(=O)NCc3cccc(O)c3)cc2Cl)C(=O)O)c1 [Example 126] | 1.2 | 400 |
| CN(C)c1cccc(C(=O)NC[C@H](NC(=O)c2ccc(C(=O)NCc3cccc(O)c3)cc2Cl)C(=O)O)c1 [Example 127] | 2.2 | 455 |
| CN(C)c1ccc(C(=O)NC[C@H](NC(=O)c2ccc(C(=O)NCc3cccc(O)c3)cc2Cl)C(=O)O)cc1 [Example 128] | 4.2 | 4900 |
| CCOc1ccc(C(=O)NC[C@H](NC(=O)c2ccc(C(=O)NCc3cccc(O)c3)cc2Cl)C(=O)O)cc1 [Example 130] | 5 | 3000 |
| O=C(NCc1cccc(O)c1)c1ccc(C(=O)N[C@@H](CNC(=O)c2cccc(I)c2)C(=O)O)c(Cl)c1 [Example 133] | 1.5 | 625 |
| COc1ccccc1C(=O)NC[C@H](NC(=O)c1ccc(C(=O)NCc2cccc(O)c2)cc1Cl)C(=O)O [Example 134] | 2.1 | 1550 |
| COc1ccc(C(=O)NC[C@H](NC(=O)c2ccc(C(=O)NCc3cccc(O)c3)cc2Cl)C(=O)O)cc1 [Example 135] | 6.3 | 2640 |
| COC(=O)c1cccc(C(=O)NC[C@H](NC(=O)c2ccc(C(=O)NCc3cccc(O)c3)cc2Cl)C(=O)O)c1 [Example 136] | 2 | 490 |
| Cc1ccc(C(=O)NC[C@H](NC(=O)c2ccc(C(=O)NCc3cccc(O)c3)cc2Cl)C(=O)O)cc1 [Example 139] | 4.8 | 1750 |
| O=C(NCc1cccc(O)c1)c1ccc(C(=O)N[C@@H](CNC(=O)c2ccccc2[N+](=O)[O-])C(=O)O)c(Cl)c1 [Example 140] | 1.8 | 350 |
| O=C(NCc1cccc(O)c1)c1ccc(C(=O)N[C@@H](CNC(=O)c2cccc([N+](=O)[O-])c2)C(=O)O)c(Cl)c1 [Example 141] | 1.9 | 450 |
| O=C(NCc1cccc(O)c1)c1ccc(C(=O)N[C@@H](CNC(=O)c2ccc([N+](=O)[O-])cc2)C(=O)O)c(Cl)c1 [Example 142] | 2 | 500 |
| CCCCCOc1ccc(C(=O)NC[C@H](NC(=O)c2ccc(C(=O)NCc3cccc(O)c3)cc2Cl)C(=O)O)cc1 [Example 143] | 11 | 12000 |
| O=C(NCc1cccc(O)c1)c1ccc(C(=O)N[C@@H](CNC(=O)c2ccccc2Oc2ccccc2)C(=O)O)c(Cl)c1 [Example 144] | 6.6 | 1800 |
| O=C(NCc1cccc(O)c1)c1ccc(C(=O)N[C@@H](CNC(=O)c2cc(F)c(F)cc2F)C(=O)O)c(Cl)c1 [Example 145] | 1.7 | 1450 |

| Compound | IC50 [2] [nM] | IC50 [1] [nM] |
| --- | --- | --- |
| O=C(NCc1cccc(O)c1)c1ccc(C(=O)N[C@@H](CNC(=O)c2cccc(C(F)(F)F)c2)C(=O)O)c(Cl)c1 [Example 146] | 2.6 | 490 |
| COc1cc(C(=O)NC[C@H](NC(=O)c2ccc(C(=O)NCc3cccc(O)c3)cc2Cl)C(=O)O)cc(OC)c1OC [Example 147] | 15 | 4600 |
| O=C(NCc1cccc(O)c1)c1ccc(C(=O)N[C@@H](CNC(=O)c2ccco2)C(=O)O)c(Cl)c1 [Example 148] | 1.4 | 335 |
| O=C(NCc1cccc(O)c1)c1ccc(C(=O)N[C@@H](CNC(=O)c2ccc([N+](=O)[O-])o2)C(=O)O)c(Cl)c1 [Example 149] | 2.9 | 950 |
| O=C(NCc1cccc(O)c1)c1ccc(C(=O)N[C@@H](CNC(=O)c2ccc(Br)o2)C(=O)O)c(Cl)c1 [Example 150] | 2.5 | 800 |
| O=C(NCc1cccc(O)c1)c1ccc(C(=O)N[C@@H](CNC(=O)c2ccc[nH]2)C(=O)O)c(Cl)c1 [Example 151] | 2.8 | 265 |
| O=C(NCc1cccc(O)c1)c1ccc(C(=O)N[C@@H](CNC(=O)c2ccc(Cl)s2)C(=O)O)c(Cl)c1 [Example 157] | 1.2 | 700 |
| O=C(NCc1cccc(O)c1)c1ccc(C(=O)N[C@@H](CNC(=O)c2cc(Br)c(Br)s2)C(=O)O)c(Cl)c1 [Example 158] | 7.5 | 7600 |
| Cc1cccc(C(=O)NC[C@H](NC(=O)c2ccc(C(=O)NCc3cccc(O)c3)cc2Cl)C(=O)O)n1 [Example 163] | 3.2 | 1550 |
| O=C(NCc1cccc(O)c1)c1ccc(C(=O)N[C@@H](CNC(=O)c2cccnc2)C(=O)O)c(Cl)c1 [Example 165] | 1.3 | 800 |
| C[C@@H](NC(=O)c1cc(Cl)c(C(=O)N[C@@H](CNC(=O)c2cccs2)C(=O)O)c(Cl)c1)c1cccc2ccccc12 [Example 346, N-[2,6-dichloro-4-[[[(1R)-1-(1-naphthalenyl)ethyl]amino]carbonyl]benzoyl]-3-[(thiophene-2-carbonyl)amino]-L-alanine] | 2.1 | 68 |
| C[C@@H](NC(=O)c1cc(Cl)c(C(=O)N[C@@H](CNC(=O)c2ccccc2)C(=O)O)c(Cl)c1)c1cccc2ccccc12 [Example 347] | 3.4 | 250 |
| O=C(NCc1cccc(O)c1)c1cc(Cl)c(C(=O)N[C@@H](CNC(=O)c2sccc2Br)C(=O)O)c(Cl)c1 [Example 353] | 1.6 | 52 |
| O=C(NCc1cccc(O)c1)c1ccc(C(=O)N[C@@H](CNS(=O)(=O)c2ccccc2)C(=O)O)c(Cl)c1 [Example 360, 3-(phenylsulfonylamino)-N-[2-chloro-4-[[[(3-hydroxyphenyl)methyl]amino]carbonyl]benzoyl]-L-alanine] | 5.2 | 4600 |
| CC(=O)Nc1nc(C)c(S(=O)(=O)NC[C@H](NC(=O)c2ccc(C(=O)N[C@H](C)c3cccc4ccccc34)cc2Cl)C(=O)O)s1 [Example 362] | 8.8 | 15000 |
| O=C(NCc1ccc(C(=O)N[C@@H](CNC(=O)c2ccccc2)C(=O)O)c(Cl)c1)c1cccc(O)c1 [Example 364, N-[2-chloro-4-[[(3-hydroxyphenyl)carbonyl]aminomethyl]benzoyl]-3-benzoylamino-L-alanine] | 7.7 | 2850 |
| O=C(NC[C@H](NC(=O)c1ccc(CNC(=O)c2ccccc2O)cc1Cl)C(=O)O)c1ccccc1 [Example 365] | 18 | 9500 |

Now those with a lower IC50 [2], led by results:

| IC50 [2] [nM] | Compound | IC50 [1] [nM] |
| --- | --- | --- |
| 1.1 | Cc1ccccc1C(=O)NC[C@H](NC(=O)c1ccc(C(=O)NCc2cccc(O)c2)cc1Cl)C(=O)O [Example 137] | 325 |
| 1.1 | O=C(NCc1cccc(O)c1)c1cc(Cl)c(C(=O)N[C@@H](CNC(=O)c2cccc(F)c2)C(=O)O)c(Cl)c1 [Example 349] | 42 |
| 1 | O=C(NCc1cccc(O)c1)c1ccc(C(=O)N[C@@H](CNC(=O)c2sccc2Cl)C(=O)O)c(Cl)c1 [Example 156] | 465 |
| 1 | O=C(NCc1cccc(O)c1)c1ccc(C(=O)N[C@@H](CNC(=O)c2ccsc2)C(=O)O)c(Cl)c1 [Example 161] | 94 |
| 1 | O=C(NCc1cccc(O)c1)c1cc(Cl)c(C(=O)N[C@@H](CNC(=O)c2cccc(O)c2)C(=O)O)c(Cl)c1 [Example 350] | 12 |
| 1 | O=C(NCc1cccc(O)c1)c1cc(Cl)c(C(=O)N[C@@H](CNC(=O)c2ccc(Br)s2)C(=O)O)c(Cl)c1 [Example 354] | 203 |
| 0.9 | O=C(NCc1cccc(O)c1)c1ccc(C(=O)N[C@@H](CNC(=O)c2sccc2Br)C(=O)O)c(Cl)c1 [Example 154] | 365 |
| 0.9 | Cc1ccsc1C(=O)NC[C@H](NC(=O)c1ccc(C(=O)NCc2cccc(O)c2)cc1Cl)C(=O)O [Example 159] | 165 |
| 0.9 | Cc1ccc(C(=O)NC[C@H](NC(=O)c2ccc(C(=O)NCc3cccc(O)c3)cc2Cl)C(=O)O)s1 [Example 160] | 220 |
| 0.8 | O=C(NCc1cccc(O)c1)c1ccc(C(=O)N[C@@H](CNC(=O)c2cccc(Cl)c2)C(=O)O)c(Cl)c1 [Example 123] | 300 |
| 0.8 | O=C(NCc1cccc(O)c1)c1ccc(C(=O)N[C@@H](CNC(=O)c2cccc(F)c2)C(=O)O)c(Cl)c1 [Example 131] | 215 |
| 0.8 | COc1ccc(C(=O)NC[C@H](NC(=O)c2c(Cl)cc(C(=O)NCc3cccc(O)c3)cc2Cl)C(=O)O)cc1O [Example 351] | 23 |
| 0.7 | Cc1cccc(C(=O)NC[C@H](NC(=O)c2ccc(C(=O)NCc3cccc(O)c3)cc2Cl)C(=O)O)c1 [Example 138] | 205 |
| 0.7 | O=C(NCc1cccc(O)c1)c1ccc(C(=O)N[C@@H](CNC(=O)c2ccc(Br)s2)C(=O)O)c(Cl)c1 [Example 155] | 750 |
| 0.6 | O=C(NCc1cccc(O)c1)c1ccc(C(=O)N[C@@H](CNC(=O)c2cccc(O)c2)C(=O)O)c(Cl)c1 [Example 132] | 82 |
| 0.2 | Cc1ccc(C(=O)NC[C@H](NC(=O)c2c(Cl)cc(C(=O)NCc3cccc(O)c3)cc2Cl)C(=O)O)s1 [Example 358] | 64 |

From patent US20040006236A1, “Diaminopropionic acid derivatives” (priority 1999, published 2004)
